Where “and” joins values, the source holds several entries; their conditions need not be identical. Equal entries are not always repeated. Marks after values point to notes of the source that are not given here.
What was measured:
Format in all cases: cell-based
[1] = system: human oral keratinocytes (HOK-18A); assay: IL-8 levels in supernatants of keratinocyte cultures exposed to substrate-treated biofilms; conditions: for IL-8 levels in supernatants of HOK-18A cultures: mean±SD n=3
Procedure: (§1) Cultures of immortalized human oral keratinocytes (HOK-18A) are grown. The relative inflammatory potential of the substrate-treated multi-species biofilms is evaluated by analyzing the expression of five inflammatory mediator genes in human oral keratinocytes (HOKs) exposed to the substrate-treated biofilms. […] The IL-8 levels in the cellular supernatant are determined as well. RNA is converted to cDNA and relative expression of inflammatory mediator genes is determined as described above with respect to the cellular housekeeping gene (3-actin.
(§2) Table 7: IL-8 levels detected in the supernatants of human oral keratinocytes (HOK-18A) cultures exposed to substrate-treated multi-species biofilms are shown as mean±SD (n=3) values (pg/mL). All substrates are dissolved in PBS at a concentration of 1 M (upper part) or 1% (w/v) (lower part). Values between 0 and 1 represent relative downregulation, values >1 represent relative upregulation. […] For such values, statistically significant differences between two experimental conditions are marked with ‘#1’ (vs. NADM), ‘#2’ (vs. NADG), ‘#3’ (vs. D-(+)-mannose) (P<0.05).

[2] = system: S. gordonii; assay: Multi-species biofilm composition: absolute abundance of S. gordonii; conditions: mean±SD n=3
Procedure: (§3) Biofilms are grown vertically on Calcium Deficient Hydroxyapatite (CAD-HA) disks (Hitemco Medical, Old Bethpage, USA) using the Amsterdam Active Adhesion model. Biofilms are allowed to establish during 24 h (37° C., 170 rpm) under micro-aerophilic conditions (6% O2, 7% CO2, 7% H2, 80% N2). After this 24 h, disks are rinsed 3 times a day for 3 minutes (RT, 250 rpm), for 3 consecutive days, by transferring the lid containing the disks to a new 24-well plate containing 2 mL/well of the appropriate substrate solution. As a negative control, PBS (pH 5.7) without substrate supplementation is used. After each rinsing step, disks are shortly dip-rinsed in a new 24-well plate containing fresh modified BHI medium (2 mL/well) to remove remaining substrate traces. Subsequently, the lid is transferred to another 24-well plate containing fresh modified BHI medium (2 mL/well), followed by incubation (micro-aerophilic, 37° C., 170 rpm) until the next rinsing step.
NADM, N-acetyl-D-glucosamine (“NADG”) and D-(+)-mannose are selected to determine their effects on multi-species biofilm composition. Repeated rinsing of the biofilms with the substrates at a concentration of 1M results in a significant decrease in absolute numbers in at least four of the pathogenic bacterial species tested in the assay, compared to the control, the results of which are described in Table 1 below. Absolute abundances of bacterial species are shown as mean±SD (n=3) logarithmic values of the genome equivalents per millilitre (log(Geq/mL)).

[3] = system: A. actinomycetemcomitans virulence genes; assay: Multi-species biofilm virulence gene expression, SYBR RT-qPCR: A. actinomycetemcomitans; conditions: for Fold Change in virulence gene expression: aae / Fold Change in virulence gene expression: apaH / Fold Change in virulence gene expression: cdtB / Fold Change in virulence gene expression: emaA / Fold Change in virulence gene expression: flp / Fold Change in virulence gene expression: ltxA / Fold Change in virulence gene expression: omp29 / Fold Change in virulence gene expression: omp100 / Fold Change in virulence gene expression: orf859 / Fold Change in virulence gene expression: pgA / Fold Change in virulence gene expression: vapA / Fold Change in virulence gene expression: vppA: relative to control (=1), 2^-ΔΔCt, geometric mean n=3
Procedure: as §3
The expression of 33 virulence genes from 4 periodontal pathogens is analysed to evaluate the relative virulence of the substrate-treated biofilms. For all three substrates, virulence gene expression is determined relatively to the control, and these values are also compared between substrates when this is relevant (Tables 5a-5d).

[4] = system: human oral keratinocytes (HOK-18A); assay: Inflammatory mediator gene expression in keratinocytes exposed to substrate-treated biofilms; conditions: for Fold change in inflammatory mediator gene expression: IL-1β / Fold change in inflammatory mediator gene expression: IL-6 / Fold change in inflammatory mediator gene expression: IL-8 / Fold change in inflammatory mediator gene expression: MMP-8 / Fold change in inflammatory mediator gene expression: TNF-α: relative to control (=1), geometric mean (95% C.I.) n=3
Procedure: as §1
In HOKs exposed to substrate-treated (substrate concentrations of 1 M) multi-species biofilms, mostly decreases in inflammatory mediator gene expression are observed and measured via SYBR RT-qPCR, the results of which are detailed in Table 6.
as §2, with “All” for “Table 7: IL-8 levels detected in the supernatants of human oral keratinocytes (HOK-18A) cultures exposed to substrate-treated multi-species biofilms are shown as mean±SD (n=3) values (pg/mL). All”

[5] = system: S. sanguinis; assay: Multi-species biofilm composition: absolute abundance of S. sanguinis; conditions: mean±SD n=3
Procedure: as §3
(§4) NADM, N-acetyl-D-glucosamine (“NADG”) and D-(+)-mannose are selected to determine their effects on multi-species biofilm composition. […] decrease in absolute numbers in at least four of the pathogenic bacterial species tested in the assay, compared to the control, the results of which are described in Table 1 below. Absolute abundances of bacterial species are shown as mean±SD (n=3) logarithmic values of the genome equivalents per millilitre (log(Geq/mL)).

[6] = system: P. gingivalis; assay: Multi-species biofilm composition: absolute abundance of P. gingivalis; conditions: mean±SD n=3
Procedure: as §3, §4

[7] = system: multi-species biofilms; assay: Multi-species biofilm organic acid balances (supernatant); conditions: >0 production, <0 consumption, mean±SD n=3
Procedure: as §3
To examine the effect of NADM and the influence of the orientation and absence/presence of the N-acetyl group on organic acid production and consumption, supernatant samples from substrate-treated or untreated multi-species biofilms are analysed. […] When comparing relevant significant differences between substrate conditions, an increase in acetate production is observed for NADM compared to D-(+)-mannose (3084±174 vs. 1934±56 mg/L).

[8] = biofilm rinsed with substrate 1M
[9] = biofilm rinsed with substrate 1%

CC(=O)N[C@@H]1C(O)O[C@H](CO)[C@@H](O)[C@@H]1O (stereo partly drawn) [NADM, N-acetyl-D-mannosamine]
IL-8 levels in supernatants of HOK-18A cultures ([1]; biofilm rinsed with substrate 1%(w/v)): 30.32 ± 6.26 pg/mL
IL-8 levels in supernatants of HOK-18A cultures [1, 8]: 0.59 ± 0.61 pg/mL
Reduced IL-8 levels compared to the control ([1]; substrate 1%(w/v)): 2.4 fold
Absolute abundance S. gord. (S. gordonii) ([2]; substrate 1%(w/v) in PBS): 8.40 ± 0.10 log(Geq/mL)
Absolute abundance S. gord. (S. gordonii) ([2]; substrate 1 M in PBS): 8.94 ± 0.32 log(Geq/mL)
Fold Change in virulence gene expression: aae ([3]; substrate 1% (w/v)): 0.92 fold
Fold Change in virulence gene expression: apaH ([3]; substrate 1% (w/v)): 0.81 fold
Fold Change in virulence gene expression: cdtB ([3]; substrate 1% (w/v)): 0.59 fold
Fold Change in virulence gene expression: emaA ([3]; substrate 1% (w/v)): 0.40 fold
Fold Change in virulence gene expression: flp ([3]; substrate 1% (w/v)): 0.35 fold
Fold Change in virulence gene expression: ltxA ([3]; substrate 1% (w/v)): 0.29 fold
Fold Change in virulence gene expression: omp29 ([3]; substrate 1% (w/v)): 0.76 fold
Fold Change in virulence gene expression: omp100 ([3]; substrate 1% (w/v)): 0.42 fold
Fold Change in virulence gene expression: orf859 ([3]; substrate 1% (w/v)): 0.57 fold
Fold Change in virulence gene expression: pgA ([3]; substrate 1% (w/v)): 1.07 fold
Fold Change in virulence gene expression: vapA ([3]; substrate 1% (w/v)): 0.82 fold
Fold Change in virulence gene expression: vppA ([3]; substrate 1% (w/v)): 1.01 fold
A. actinomycetemcomitans gene expression decrease: flp, emaA and omp100 ([3]; substrate 1%(w/v)): 2.4- to 2.9 fold
Fold Change in virulence gene expression: aae ([3]; substrate 1M): 0.27 fold
Fold Change in virulence gene expression: apaH ([3]; substrate 1M): 0.25 fold
Fold Change in virulence gene expression: cdtB ([3]; substrate 1M): 0.31 fold
Fold Change in virulence gene expression: emaA ([3]; substrate 1M): 0.36 fold
Fold Change in virulence gene expression: flp ([3]; substrate 1M): 0.85 fold
Fold Change in virulence gene expression: ltxA ([3]; substrate 1M): 0.01 fold
Fold Change in virulence gene expression: omp29 ([3]; substrate 1M): 0.48 fold
Fold Change in virulence gene expression: omp100 ([3]; substrate 1M): 0.04 fold
Fold Change in virulence gene expression: orf859 ([3]; substrate 1M): 0.11 fold
Fold Change in virulence gene expression: pgA ([3]; substrate 1M): 3.53 fold
Fold Change in virulence gene expression: vapA ([3]; substrate 1M): 0.74 fold
Fold Change in virulence gene expression: vppA ([3]; substrate 1M): 0.81 fold
Fold change in inflammatory mediator gene expression: IL-1β [4, 9]: 0.83 (0.66-1.04) fold
Fold change in inflammatory mediator gene expression: IL-6 [4, 9]: 0.73 (0.48-1.13) fold
Fold change in inflammatory mediator gene expression: IL-8 [4, 9]: 1.32 (1.14-1.53) fold
Fold change in inflammatory mediator gene expression: MMP-8 [4, 9]: 0.62 (0.21-1.84) fold
Fold change in inflammatory mediator gene expression: TNF-α [4, 9]: 0.69 (0.48-1.00) fold
Fold change in inflammatory mediator gene expression: IL-1β [4, 8]: 0.59 (0.30-1.14) fold
Fold change in inflammatory mediator gene expression: IL-6 [4, 8]: 0.86 (0.34-2.18) fold
Fold change in inflammatory mediator gene expression: IL-8 [4, 8]: 0.10 (0.05-0.17)* fold
Fold change in inflammatory mediator gene expression: MMP-8 [4, 8]: 1.66 (0.82-3.35)* fold
Fold change in inflammatory mediator gene expression: TNF-α [4, 8]: 0.73 (0.64-0.83) fold
MMP-8 gene expression increase ([4]; substrate 1 M): 1.7 fold
Absolute abundance S. sang. (S. sanguinis) ([5]; substrate 1%(w/v) in PBS): 8.62 ± 0.39 log(Geq/mL)
Absolute abundance S. sang. (S. sanguinis) ([5]; substrate 1 M in PBS): 9.10 ± 0.29 log(Geq/mL)
Absolute abundance Pg (P. gingivalis) ([6]; substrate 1%(w/v) in PBS): 7.06 ± 0.30 log(Geq/mL)
Absolute abundance Pg (P. gingivalis) ([6]; substrate 1 M in PBS): 5.42 ± 0.23 log(Geq/mL)
acetate level in biofilm supernatant ([7]; substrate 1%(w/v)): 396 ± 11 mg/L
butyrate level in biofilm supernatant ([7]; substrate 1%(w/v)): 1989 ± 44 mg/L
formate level in biofilm supernatant ([7]; substrate 1%(w/v)): 3768 ± 174 mg/L
lactate level in biofilm supernatant ([7]; substrate 1%(w/v)): 125 ± 0 mg/L
propionate level in biofilm supernatant ([7]; substrate 1%(w/v)): 1891 ± 79 mg/L
butyrate level in biofilm supernatant ([7]; substrate 1 M): 541±52 mg/L and 541 ± 52*^, #2, 3 mg/L
formate level in biofilm supernatant ([7]; substrate 1 M): 791.9 ± 138.27 mg/L and 792 ± 138 mg/L
lactate level in biofilm supernatant ([7]; substrate 1 M): 125 ± 0 mg/L
propionate level in biofilm supernatant ([7]; substrate 1 M): 2052 ± 54 mg/L

Source: patent publication US20220257491A1, “Prebiotic Oral Care Compositions and Methods” (Colgate-Palmolive Company, priority 2021, published 2022)
